Laboratory results published in ChEMBL document CHEMBL1201862, “PubChem BioAssay data set” (2004).
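Test compounds were applied to cells in 96-well plates for 48 hours at 5 doses. GI50 is the concentration that inhibits growth by half.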 The source made the active and inactive calls. Cut-off read from the data, not from the text of the source: active = GI50 up to about 1.1 µM and inactive = higher.

Tests used:
Assay in all cases: NCI-60 cell line screen, 48 h
NCI-H23 = tested on: NCI-H23
A549 = tested on: A549
HCT-116 = tested on: HCT-116
K562 = tested on: K562
M14 = tested on: M14
SF-295 = tested on: SF-295
SF-268 = tested on: SF-268
UACC-62 = tested on: UACC-62
EKVX = tested on: EKVX
SNB-75 = tested on: SNB-75
MOLT-4 = tested on: MOLT-4
OVCAR-4 = tested on: OVCAR-4
OVCAR-5 = tested on: OVCAR-5
CAKI-1 = tested on: CAKI-1
TK-10 = tested on: TK-10
OVCAR-3 = tested on: OVCAR-3
LOX IMVI = tested on: LOX IMVI

Measured: GI50

O=c1c2ccccc2nc(-c2ccccc2)n1NC1OC(CO)C(O)C(O)C1O (stereo unspecified)
inactive: NCI-H23 > 100 µM | A549 > 100 µM | HCT-116 > 100 µM | K562 > 100 µM | M14 > 100 µM | SF-295 > 100 µM | SF-268 > 100 µM | UACC-62 > 100 µM | EKVX > 100 µM | SNB-75 85.3 µM | MOLT-4 > 100 µM | OVCAR-4 > 100 µM | OVCAR-5 > 100 µM | CAKI-1 > 100 µM | TK-10 > 100 µM | OVCAR-3 > 100 µM

NC(=O)c1ccc([N+](=O)[O-])cc1
inactive: NCI-H23 > 100 µM | A549 > 100 µM | K562 > 100 µM | M14 > 100 µM | SF-295 > 100 µM | SF-268 > 100 µM | LOX IMVI > 100 µM | UACC-62 > 100 µM | EKVX > 100 µM | SNB-75 > 100 µM | MOLT-4 > 100 µM | CAKI-1 > 100 µM | TK-10 > 100 µM | OVCAR-3 > 100 µM

O=C(Cc1ccccc1)NN1C(=O)/C(=C\c2ccc([N+](=O)[O-])cc2)S/C1=N\c1ccccc1
inactive: NCI-H23 68.5 µM | A549 > 100 µM | HCT-116 > 100 µM | K562 42.5 µM | M14 > 100 µM | SF-295 > 100 µM | SF-268 > 100 µM | UACC-62 61.1 µM | EKVX > 100 µM | SNB-75 > 100 µM | MOLT-4 55 µM | OVCAR-4 > 100 µM | OVCAR-5 > 100 µM | TK-10 > 100 µM | OVCAR-3 47.8 µM

Cn1nc(-c2ccccc2)c(C(=O)/C=C/c2ccc(F)cc2)c(N2CCCC2)c1=O
inactive: NCI-H23 10.9 µM | A549 15.1 µM | HCT-116 6.5 µM | K562 7.82 µM | M14 15.9 µM | SF-268 14.3 µM | LOX IMVI 17.9 µM | UACC-62 12.7 µM | EKVX 19.2 µM | MOLT-4 4.41 µM | CAKI-1 12.2 µM | TK-10 24 µM

Oc1cn(-c2ccc(Cl)cc2)nc1-c1nnc(Nc2ccccc2)o1
inactive: NCI-H23 14.1 µM | A549 20.4 µM | HCT-116 16.1 µM | M14 19.6 µM | SF-295 18.9 µM | SF-268 14.6 µM | UACC-62 16.6 µM | EKVX 23.9 µM | SNB-75 20.8 µM | OVCAR-4 34.8 µM | OVCAR-5 88.7 µM | CAKI-1 32.3 µM | TK-10 18.5 µM | OVCAR-3 31.8 µM

O=C(c1ccc(Cl)cc1Cl)N(/N=C/C=C/c1ccccc1)c1nnc(-c2ccccc2)c(-c2ccccc2)n1
inactive: NCI-H23 > 100 µM | A549 > 100 µM | K562 > 100 µM | SF-295 > 100 µM | SF-268 > 100 µM | LOX IMVI > 100 µM | UACC-62 > 100 µM | EKVX > 100 µM | SNB-75 > 100 µM | MOLT-4 70 µM | OVCAR-4 > 100 µM | OVCAR-5 > 100 µM | TK-10 > 100 µM | OVCAR-3 > 100 µM

COc1ccc(OC)c2c1C(=O)C1CC1(Br)C2=O (stereo unspecified)
inactive: NCI-H23 > 100 µM | A549 > 100 µM | HCT-116 > 100 µM | K562 > 100 µM | M14 > 100 µM | SF-295 > 100 µM | SF-268 > 100 µM | LOX IMVI > 100 µM | UACC-62 > 100 µM | EKVX 73.1 µM | MOLT-4 > 100 µM | OVCAR-4 > 100 µM | OVCAR-5 > 100 µM | CAKI-1 > 100 µM | TK-10 > 100 µM | OVCAR-3 > 100 µM
